Measurements from PMC6979073, “Control of glutamate release by complexes of adenosine and cannabinoid receptors” (BMC Biology, 2020).
Where two headings read alike, the source gives them in different places.

How the values were obtained:
[1] = system: rat striatal synaptosomes; assay: Depolarization-evoked glutamate release from striatal synaptosomes; type: cell-based; conditions: for Evoked glutamate release, expressed as the difference in % of the control value: WIN55,212-2 0.1 μM, n = 6
[2] = system: CB1R; parameters: method as in PMID 16365309, PMID 1331766; conditions: cited from earlier work
[3] = system: CB1R; parameters: method as in PMID 16365309, PMID 1331766; conditions: cited from earlier work; remark: listed apart in the source
[4] = target: A2AR-CB1R heterotetramer (Homo sapiens, UniProt P21554+P29274)
[5] = target: A2AR-CB1R heteromer (Homo sapiens, UniProt P21554+P29274)
[6] = target: CB1R (Homo sapiens, UniProt P21554); conditions: CP55940 200 nM; cells transfected with CB1R
[7] = PTX 10 ng/ml overnight or CTX 100 ng/ml 2 h

Chain of A2AR-CB1R heterotetramer (P29274 whole entry): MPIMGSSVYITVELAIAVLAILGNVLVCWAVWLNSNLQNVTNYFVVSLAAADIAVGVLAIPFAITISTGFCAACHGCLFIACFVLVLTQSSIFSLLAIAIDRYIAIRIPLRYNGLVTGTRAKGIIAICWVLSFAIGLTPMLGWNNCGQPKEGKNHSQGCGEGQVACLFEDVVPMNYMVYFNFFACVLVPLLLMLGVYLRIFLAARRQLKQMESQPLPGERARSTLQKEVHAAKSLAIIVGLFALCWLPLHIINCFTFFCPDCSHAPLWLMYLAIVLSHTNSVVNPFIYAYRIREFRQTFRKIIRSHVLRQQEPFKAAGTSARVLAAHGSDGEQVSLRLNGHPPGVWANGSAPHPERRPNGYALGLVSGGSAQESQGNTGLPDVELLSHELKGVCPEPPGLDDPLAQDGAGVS
Chain of A2AR-CB1R heterotetramer (P21554 whole entry): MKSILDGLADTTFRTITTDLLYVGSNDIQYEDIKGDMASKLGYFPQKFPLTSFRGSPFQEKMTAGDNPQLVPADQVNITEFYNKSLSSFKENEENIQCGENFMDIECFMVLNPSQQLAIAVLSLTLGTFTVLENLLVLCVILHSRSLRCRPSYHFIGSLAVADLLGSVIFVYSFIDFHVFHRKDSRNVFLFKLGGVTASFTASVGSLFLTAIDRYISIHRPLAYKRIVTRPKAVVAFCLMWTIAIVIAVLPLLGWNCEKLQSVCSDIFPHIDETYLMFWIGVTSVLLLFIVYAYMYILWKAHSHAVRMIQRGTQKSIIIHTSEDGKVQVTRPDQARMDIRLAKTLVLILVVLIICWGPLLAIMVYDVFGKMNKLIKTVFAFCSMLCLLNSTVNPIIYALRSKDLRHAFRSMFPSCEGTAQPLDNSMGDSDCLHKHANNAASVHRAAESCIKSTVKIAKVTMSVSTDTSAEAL
Chain of A2AR-CB1R heteromer (P29274 whole entry): as the sequence (P29274 whole entry) above
Chain of A2AR-CB1R heteromer (P21554 whole entry): as the sequence (P21554 whole entry) above
Chain of CB1R (Homo sapiens, UniProt P21554) (P21554 whole entry): as above

Compound: Cc1c(C(=O)c2cccc3ccccc23)c2cccc3c2n1[C@H](CN1CCOCC1)CO3 [WIN55,212-2]
- Evoked glutamate release, expressed as the difference in % of the control value ([1]; synaptosomes incubated 4 h at 4 °C with PTX (2 μg/ml)): 114.6% ± 6.8
- Evoked glutamate release, expressed as the difference in % of the control value ([1]; toxin-naïve synaptosomes): 82.9% ± 3.6
- Further inhibition of evoked glutamate release in the presence of SCH58261 (10 μM) ([1]; WIN55212-2 0.3 μM): could not be further inhibited
- EC50 ([1]; WIN55,212-2 alone, 30 mM KCl, read-out: EC50 of inhibition of evoked glutamate release): 5.5 nM
- Maximal effect on evoked glutamate release ([1]; at 0.03 μM): 77.0 ± 3.0 % of DMSO control
- Potency relative to CP55940 at eliciting Gq-dependent intracellular calcium increase [2]: more
- Potency relative to CP55940 at inhibiting forskolin-induced cAMP production [3]: less potent

Compound: pertussis toxin [PTX]
- Effect on CGS21680-induced cAMP increase [4, 7]: also blocked
- Effect on CP55940-induced cAMP decrease [4, 7]: blockade
- Effect on WIN55,212-2 (0.1 μM) inhibition of glutamate release ([1]; PTX 2 μg/ml, 4 h at 4 °C): fully prevented this inhibition

Compound: CCCCCCC(C)(C)c1ccc([C@@H]2C[C@H](O)CC[C@H]2CCCO)c(O)c1 [CP55940]
- Effect on CGS21680-mediated increase in cAMP [4]: counteracted CGS21680-mediated increase in cAMP
- Effect on the concentration-response curve of NECA (Gs activation) ([5]; CP55940 10 μM, Gαs-YFP): did not produce a significant shift
- Concentration-response curve of ligand-induced changes in BRET: G protein coupling ([5]; cells co-transfected with either Gαs-, Gαi1- or Gαq-YFP): could only be obtained when the cells were transfected with Gαi-YFP
- Effect on cAMP formation induced by forskolin (500 nM) [6]: decreased cAMP formation

Compound: CCNC(=O)[C@H]1O[C@@H](n2cnc3c(N)nc(NCCc4ccc(CCC(=O)O)cc4)nc32)[C@H](O)[C@@H]1O [CGS21680]
- Effect on the inhibition of glutamate release by 0.01 and 0.03 μM of WIN55,212-2 ([1]; CGS21680 0.03 μM or SCH58261 0.1 μM): fully prevented
- Effect of co-application on the effect of WIN55,212-2 on glutamate release ([1]; CGS21680 0.03 μM plus SCH58261 0.1 μM): did not significantly modify

Compound: cholera toxin [CTX]
- Effect on CGS21680-induced cAMP increase [4]: blockade
- Effect on CP55940-induced cAMP decrease [4]: also blocked

Compound: Nc1nc2c(cnn2CCc2ccccc2)c2nc(-c3ccco3)nn12 [SCH58261]
- Effect of co-application on the effect of WIN55,212-2 on glutamate release [1]: did not significantly modify
- Effect on the concentration-response inhibitory curve of WIN55,212-2 [1]: shifted to the right
- Effect on the inhibition of glutamate release by 0.01 and 0.03 μM of WIN55,212-2 [1]: fully prevented
- Effect on evoked glutamate release ([1]; SCH58261 10 μM): significantly inhibited the evoked glutamate release
